Read-outs that look alike come from different tables or passages of the source.
Assays:
[1] = molecular target: T1, InhA (Mycobacterium tuberculosis, UniProt P9WGR1); assay: InhA enzymatic assay (NADH oxidation at 340 nm, 2-trans-octanoyl-CoA substrate); format: biochemical; conditions: for LE (ligand efficiency): LE = (1.37 × pIC50)/HA; for IC50: average of three experiments
Experimental: The identified fragment hits were further evaluated by an InhA enzymatic assay using 2-trans-octanoyl-CoA as a substrate.[22]
The carboxylic acid in fragment 1 (P1) was replaced by an isosteric sulfonamide as a linker to synthesize compound 6 (Figure 2b). Docking experiments with Glide XP[23] […] All the synthesized compounds were tested at a concentration of 100 μM using the InhA enzymatic assay.
InhA activity was followed by a colorimetric assay that measured the oxidation of NADH at 340 nm in the presence of 2-trans-octanoyl-CoA as described before in a buffer that contained 30 mM PIPES, pH 7.5, 50 mM NaCl, 0.1 mM EDTA, and 100 nM InhA.[26] This was preincubated for 10 min at room temperature with 0.25 mM NADH and varying concentrations of the compounds with 1% (v/v) DMSO in a 150 μL reaction volume. The reaction was started by the addition of 2-trans-octanoyl-CoA at a final concentration of 1.5 mM, prepared as described previously.[22] Reactions were followed for 20 min using a plate reader (CLARIOstar, BMG LABTECH).

[2] = test system: M. tuberculosis H37Ra; assay: Growth inhibition of M. tuberculosis H37Ra, 48 h cultivation; format: cell-based, Mycobacterium tuberculosis; conditions: for inhibition at 200 µM: 200 μM compound in the media, 48 h cultivation
Experimental: (§1) Further analysis of the effect on the synthesis of mycolic acids by metabolic labeling[24],[25] of the model strain M. tuberculosis H37Ra with ^14C acetate was also explored. A 48 h cultivation in the presence of 200 μM of the compounds in the media led to 84% growth inhibition for compound 19; 40% and 33% growth inhibition for compounds 14 and 23, respectively; 38% growth inhibition for compound 24 and isoniazid; 23% growth inhibition for compounds 25 and 26.
The culture of M. tuberculosis H37Ra was grown statically at 37 °C in Middlebrook 7H9 broth (Difco) supplemented with albumin–dextrose–catalase and 0.05% Tween 80. When the culture reached the OD600nm value of 0.290, it was divided into 10 mL aliquots and tested compounds dissolved in DMSO were added at 200 μM final concentrations, while isoniazid that served as a control inhibitor was at 40 μM. The final concentration of DMSO in each culture was at 1%. After 24 h of cultivation with shaking (120 rpm) in the presence of tested inhibitors, ^14C acetate (specific activity of 106 mCi/mmol) was added at a final concentration of 0.5 μCi/mL and the cells were cultivated for the next 24 h.

[3] = test system: synthesis of mycolic acids in M. tuberculosis H37Ra; assay: Metabolic labeling with 14C acetate, TLC of FAME/MAME (mycolic acid synthesis); format: cell-based, Mycobacterium tuberculosis; conditions: isoniazid control at 40 μM, 14C acetate labeling
Experimental: as §1
Figure 5 (A) TLC of the metabolic labeling experiments of M. tuberculosis H37Ra with ^14C acetate treated with the compounds 14, 19, and 23–26 for the analysis of mycolic acid inhibition. Fatty acid methyl esters, FAME; mycolic acid methyl esters, MAME; isoniazid, INH. (B) TLC of the metabolic labeling experiments of M. tuberculosis H37Ra with ^14C acetate treated with the compounds 14, 19, and 23–26 for the analysis of the lipid inhibition. Trehalose monomycolates, TMM; trehalose dimycolates, TDM; phosphatidylethanolamine, PE; cardiolipin, CL; isoniazid, INH.
The culture of M. tuberculosis H37Ra was grown statically at 37 °C in Middlebrook 7H9 broth (Difco) supplemented with albumin–dextrose–catalase and 0.05% Tween 80. […]
Fatty acid methyl esters (FAMEs) and mycolic acids methyl esters (MAMEs) were prepared from whole cells harvested from 4 mL culture aliquots as previously described.[32] […] 3× and detected by autoradiography.

[4] = molecular target: T1, InhA; assay: Differential scanning fluorimetry (fluorescence-based thermal-shift assay); format: binding; conditions: for ΔTm (thermal shift of InhA): fragments 5 mM, InhA 10 μM, NAD+ 1 mM
Experimental: Differential scanning fluorimetry (DSF) was used to screen an in-house library of 800 rule-of-three-compliant fragments. A saturating concentration of the cofactor in oxidized form (1 mM NAD^+) was used in all the experiments to ensure that the cofactor binding site would be occupied by NAD^+ and that fragments would not bind there. […] Upon screening of the fragment library, a hit was defined where the melting point was increased by at least +3 °C at a concentration of 5 mM (Figure 1a).
The substrate binding regions of InhA are divided into three sites: site I, site II, and site III.
Differential scanning fluorimetry was used to screen a library of 800 fragments. The assay was performed in a 96 well plate format using a CFX Connect (Bio-Rad). Each well contained a solution of 10 μM InhA, 1 mM NAD^+, HEPES (50 mM), NaCl (150 mM), pH 7.5, 5× Sypro Orange, 5% DMSO, and fragments at 5 mM. […] Controls were made in quadruplicates for all the experiments.

[5] = 100 μM compound, read-out: Inh % (inhibition percentage of InhA)
[6] = supplementary CSV, read-out: % inhibition
[7] = Mycobacterium tuberculosis, H37RA

T1 sequence (P9WGR1 whole entry, looked up, the tested form may be a part): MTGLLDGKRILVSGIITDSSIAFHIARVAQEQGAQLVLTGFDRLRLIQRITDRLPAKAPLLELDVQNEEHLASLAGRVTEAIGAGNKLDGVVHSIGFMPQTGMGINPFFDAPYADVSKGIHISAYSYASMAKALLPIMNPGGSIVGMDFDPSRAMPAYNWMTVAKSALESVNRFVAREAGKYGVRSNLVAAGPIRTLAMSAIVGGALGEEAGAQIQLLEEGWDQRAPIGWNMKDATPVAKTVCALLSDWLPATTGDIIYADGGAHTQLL

Compound	inhibition at 100 µM [1, 5] [%]	inhibition at 100 µM [1, 6] [%]	further results
Nc1ccc(NS(=O)(=O)/C=C/c2cccc(C(F)(F)F)c2)cc1 [compound 11, (E)-N-(4-Aminophenyl)-2-(3-(trifluoromethyl)phenyl)ethene-1-sulfonamide]	6	6	–
NNC(=O)c1ccncc1 [isoniazid, reference compound]	–	–	inhibition at 40 µM ([2]; Mycobacterium tuberculosis, H37RA, 48 h, read-out: growth inhibition): 38%; effect on synthesis of mycolic acids [3]: complete abolition
COC(=O)Cc1ccc(NS(=O)(=O)/C=C/c2cccc(C(F)(F)F)c2)cc1 [compound 13, Methyl-(E)-2-(4-((2-(3-(trifluoromethyl)phenyl)vinyl)sulfonamido)phenyl)acetate]	24	24	–
O=C(O)c1ccccc1-n1cccn1 [compound 5, 2-(1H-pyrazol-1-yl)benzoic acid]	–	–	DTm [4]: 6 oC; ΔTm (thermal shift of InhA) [4]: +6.0 °C
NCc1cccc(NS(=O)(=O)CCc2cccc3ccccc23)c1 [compound 22, N-(3-(Aminomethyl)phenyl)-2-(naphthalen-1-yl)ethane-1-sulfonamide]	17	17	–
NCc1ccc(NS(=O)(=O)/C=C/c2cccc(C(F)(F)F)c2)cc1 [compound 14, (E)-N-(4-(Aminomethyl)phenyl)-2-(3-(trifluoromethyl)phenyl)ethene-1-sulfonamide]	> 90	> 90	LE (ligand efficiency) [1]: 0.29; IC50 [1]: 9 µM; fold increase of the potency from compound 6 ([1]; compared to compound 6): 10 fold; inhibition at 200 µM [2, 7]: 40%
O=S(=O)(/C=C/c1cccc(C(F)(F)F)c1)Nc1ccccc1 [compound 6, (E)-N-Phenyl-2-(3-(trifluoromethyl)phenyl)ethene-1-sulfonamide]	54	54	–
Cc1c(S(=O)(=O)Nc2cccc(CN)c2)sc2ccc(F)cc12 [compound 24, N-(3-(Aminomethyl)phenyl)-5-fluoro-3-methylbenzo[b]thiophene-2-sulfonamide]	> 90	> 90	LE (ligand efficiency) [1]: 0.40; IC50 [1]: 0.25 µM; inhibition at 200 µM [2, 7]: 38%
CNCc1ccc(NS(=O)(=O)/C=C/c2cccc(C(F)(F)F)c2)cc1 [compound 15, (E)-N-(4-((Methylamino)methyl)phenyl)-2-(3-(trifluoromethyl)phenyl)ethene-1-sulfonamide]	0	0	–
Cc1c(S(=O)(=O)Nc2cccc(CN)c2)sc2ccc(Cl)cc12 [compound 23, N-(3-(Aminomethyl)phenyl)-5-chloro-3-methylbenzo[b]thiophene-2-sulfonamide]	> 90	> 90	activity against M. tuberculosis [2]: inactive; inhibition at 200 µM [2, 7]: 33%
CC(C)(C)OC(=O)Nc1ccc(NS(=O)(=O)/C=C/c2cccc(C(F)(F)F)c2)cc1 [compound 10, tert-Butyl-(E)-(4-((2-(3-(trifluoromethyl)phenyl)vinyl)sulfonamido)phenyl)carbamate]	11	11	–
O=S(=O)(/C=C/c1cccc(C(F)(F)F)c1)Nc1cccnc1 [compound 8, (E)-N-(Pyridin-3-yl)-2-(3-(trifluoromethyl)phenyl)ethene-1-sulfonamide]	17	17	–
O=C(O)/C=C/c1cccc(C(F)(F)F)c1 [compound 1, (E)-3-(3-(trifluoromethyl)phenyl)acrylic acid]	–	–	DTm [4]: 3.2 oC; Inhibition of InhA ([1]; 2 mM fragment, triplicate): 0%
NCc1cccc(NS(=O)(=O)c2cc3ccccc3o2)c1 [compound 26, N-(3-(Aminomethyl)phenyl)benzofuran-2-sulfonamide]	–	66	inhibition at 100 µM ([1]; read-out: Inh % (inhibition percentage of InhA)): 66%; inhibition at 200 µM [2, 7]: 23%
O=C(O)c1cc2ccccc2cc1O [compound 3, 3-hydroxy-2-naphthoic acid]	–	–	DTm [4]: 4.2 oC; ΔTm (thermal shift of InhA) [4]: +4.2 °C
O=C(O)CCc1cccc(Cl)c1 [compound 4, 3-(3-chlorophenyl)propanoic acid]	–	–	DTm [4]: 3 oC; ΔTm (thermal shift of InhA) [4]: +3.0 °C
(E)-4-((2-(3-(Trifluoromethyl)phenyl)vinyl)sulfonamido)benzamide [compound 18]	–	–	Inh % (inhibition percentage of InhA) ([1]; 100 μM compound): 0%; % inhibition ([1]; supplementary CSV): 0%
O=C(O)c1ccc(NS(=O)(=O)/C=C/c2cccc(C(F)(F)F)c2)cc1 [compound 17, (E)-4-((2-(3-(Trifluoromethyl)phenyl)vinyl)sulfonamido)benzoic Acid]	0	0	–
CC(C)(C)c1ccc(S(=O)(=O)Nc2cccc(CN)c2)cc1 [compound 21, N-(3-(Aminomethyl)phenyl)-4-(tert-butyl)benzenesulfonamide]	40	40	–
NCc1cccc(NS(=O)(=O)c2cc3ccccc3s2)c1 [compound 25, N-(3-(Aminomethyl)phenyl)benzo[b]thiophene-2-sulfonamide]	> 90	> 90	IC50 [1]: 6 µM; inhibition at 200 µM [2, 7]: 23%
CC(=O)NCc1ccc(NS(=O)(=O)/C=C/c2cccc(C(F)(F)F)c2)cc1 [compound 16, (E)-N-(4-((2-(3-(Trifluoromethyl)phenyl)vinyl)sulfonamido)benzyl)acetamide]	25	25	–
O=S(=O)(/C=C/c1cccc(C(F)(F)F)c1)NC1CCNCC1 [compound 7, (E)-N-(Piperidin-4-yl)-2-(3-(trifluoromethyl)phenyl)ethene-1-sulfonamide]	15	15	–
O=C(O)c1ccccc1C(=O)c1ccc(Cl)c([N+](=O)[O-])c1 [compound 2, 2-(4-chloro-3-nitrobenzoyl)benzoic acid]	–	–	DTm [4]: 4.2 oC; ΔTm (thermal shift of InhA) [4]: +4.2 °C
COC(=O)c1ccc(NS(=O)(=O)/C=C/c2cccc(C(F)(F)F)c2)cc1 [compound 9, Methyl-(E)-4-((2-(3-(trifluoromethyl)phenyl)vinyl)sulfonamido)benzoate]	0	0	–
O=S(=O)(/C=C/c1cccc(C(F)(F)F)c1)Nc1ccc2c(c1)CNCC2 [compound 20, (E)-N-(1,2,3,4-Tetrahydroisoquinolin-7-yl)-2-(3-(trifluoromethyl)phenyl)ethene-1-sulfonamide]	0	0	–
COc1ccc(NS(=O)(=O)/C=C/c2cccc(C(F)(F)F)c2)cc1 [compound 12, (E)-N-(4-Methoxyphenyl)-2-(3-(trifluoromethyl)phenyl)ethene-1-sulfonamide]	15	15	–

Reference: PMC7232676, “Fragment-Based Design of Mycobacterium tuberculosis InhA Inhibitors” (Journal of Medicinal Chemistry, 2020)
